# Measurements as given in US20050090522A1 (priority 2001, published 2005).
# Where two headings read alike, the source gives them in different places.
# Tested on: HIV-1
# Test: HIV-1 single-round infectious luciferase reporter virus (pseudotype) assay in HeLa CD4 CCR5 cells
# Format: cell-based
# How it was run: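 HeLa CD4 CCR5 cells (5×10^4/well, DMEM + 10% FBS) were treated with compound (final <10 μM) and infected with single-round luciferase reporter virus made in 293 cells, at MOI ~0.01. Luciferase was read 72 h post infection. EC50 came from 10-concentration percent-inhibition curves fitted to a four-parameter logistic model.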
# [1] = Human immunodeficiency virus 1, HeLa-CD4/CCR5, read-out: EC50 Group from Table 1, Table 2-1, HeLa CD4 CCR5 cells, single-round luciferase reporter virus
# [2] = Human immunodeficiency virus 1, HeLa-CD4/CCR5, read-out: EC50 Group from TABLE 1, HeLa CD4 CCR5 cells, single-round infectious luciferase reporter virus
# [3] = Human immunodeficiency virus 1, HeLa-CD4/CCR5, read-out: EC50 Group from Table 1, Table 4, HeLa CD4 CCR5 cells, single-round luciferase reporter virus
SMILES,EC50 [2],other results
"COc1cnc(-n2nccc2C)c2[nH]cc(C(=O)C(=O)N3CCN(C(=O)c4ccccc4)[C@H](C)C3)c12 [Example 242, (R)-1-benzoyl-2-methyl-4-[(4-methoxy-7-(5-methyl-pyrazol-1-yl)-6-azaindol-3-yl)-oxoacetyl]piperazine]",–,EC50 [1]: < 1000 nM
COCc1ncn(-c2ncc(OC)c3c(C(=O)C(=O)N4CCN(C(=O)c5ccccc5)CC4)c[nH]c23)n1 [Example 323],< 1000 nM,–
"COc1cnc(-n2ccc(NC(C)=O)n2)c2[nH]cc(C(=O)C(=O)N3CCN(C(=O)c4ccccc4)[C@H](C)C3)c12 [Example 262, (R)-1-benzoyl-2-methyl-4-[(4-methoxy-7-(3-acetylamino-pyrazol-1-yl)-6-azaindol-3-yl)-oxoacetyl]piperazine]",–,EC50 [1]: < 1000 nM
CC(=O)c1ccc(-c2ccnc3c(C(=O)C(=O)N4CCN(C(=O)c5ccccc5)CC4)c[nH]c23)s1 [Example 132],–,EC50 [3]: < 1000 nM
"Cc1cc(-c2cc(Cl)nc3c(C(=O)C(=O)N4CCN(C(=O)c5ccccc5)C[C@H]4C)c[nH]c23)[nH]n1 [Example 64, 1-benzoyl-3-(R)-methyl-4-[(5-chloro-7-(3-methyl-pyrazol-5-yl)-4-azaindol-3-yl)-oxoacetyl]piperazine]",–,EC50 [3]: < 1000 nM
CCCOC(=O)N1CCN(C(=O)C(=O)c2c[nH]c3c(-c4cnccn4)ncc(OC)c23)CC1 [Example 199],< 1000 nM,–
"CCNc1cnc(-c2ncc(OC)c3c(C(=O)C(=O)N4CCN(C(=O)c5ccccn5)CC4)c[nH]c23)cn1 [Example 179, 1-picolinoyl-4-[(4-methoxy-7-(2-ethylaminopyrazin-5-yl)-6-azaindol-3-yl)-oxoacetyl]piperazine]",< 1000 nM,–
C[C@@H]1CN(C(=O)c2ccccc2)CCN1C(=O)C(=O)c1c[nH]c2c(-c3cnc(O)nc3)nccc12 [Example 162],< 1000 nM,–
"COc1cnc(-c2cnc(N(C)C)cn2)c2[nH]cc(C(=O)C(=O)N3CCN(C(=O)c4ccccc4)CC3)c12 [Example 72, 1-(benzoyl)-4-[(4-methoxy-7-(2-dimethylamino-pyrazin-5-yl)-6-azaindol-3-yl)-oxoacetyl]piperazine]",< 1000 nM,–
"COc1cnc(-n2ccc(CCC(=O)O)n2)c2[nH]cc(C(=O)C(=O)N3CCN(C(=O)c4ccccc4)[C@H](C)C3)c12 [Example 234, (R)-1-benzoyl-2-methyl-4-[(4-methoxy-7-(3-(2-hydroxylcarbonylethan-1-yl)-pyrazol-1-yl)-6-azaindol-3-yl)-oxoacetyl]piperazine]",–,EC50 [1]: < 1000 nM
C[C@@H]1CN(C(=O)c2ccccc2)CCN1C(=O)C(=O)c1c[nH]c2c(-c3cncc(O)n3)nccc12 [Example 121],< 1000 nM,–
"C[C@@H]1CN(C(=O)c2ccccc2)CCN1C(=O)C(=O)c1c[nH]c2c(C(=O)NCc3ccc(C(F)(F)F)cc3)ccnc12 [Example 135, (R)-1-benzoyl-3-methyl-4-[(7-(4-trifluoromethylbenzylarmino)carbonyl-4-azaindol-3-yl)-oxoacetyl]piperazine]",–,EC50 [3]: < 1000 nM
"Cc1c[nH]c(-c2cc(Cl)nc3c(C(=O)C(=O)N4CCN(C(=O)c5ccccc5)C[C@H]4C)c[nH]c23)n1 [Example 61, l-benzoyl-3-(R)-methyl-4-[(5-chloro-7-(4-methyl-imidazol-2-yl)-4-azaindol-3-yl)-oxoacetyl]piperazine]",–,EC50 [3]: < 1000 nM
"COc1ccc(-c2ccnc3c(C(=O)C(=O)N4CCN(C(=O)c5ccccc5)CC4)c[nH]c23)cc1 [Example 65, 1-(benzoyl)-4-[(7-(4-methoxy)-4-azaindol-3-yl)-oxoacetyl]piperazine]",–,EC50 [3]: < 1000 nM
"COCc1ccn(-c2ncc(OC)c3c(C(=O)C(=O)N4CCN(C(=O)c5ccccc5)[C@H](C)C4)c[nH]c23)n1 [Example 238, (R)-1-benzoyl-2-methyl-4-[(4-methoxy-7-(3-methoxymethyl-pyrazol-1-yl)-6-azaindol-3-yl)-oxoacetyl]piperazine]",–,EC50 [1]: < 1000 nM
"COc1cccc(-c2ncc(OC)c3c(C(=O)C(=O)N4CCN(C(=O)c5ccccc5)CC4)c[nH]c23)n1 [Example 77, 1-benzoyl-4-[(4-methoxy-7-(2-methoxy-pyridin-6-yl)-6-azaindol-3-yl)-oxoacetyl]piperazine]",< 1000 nM,–
"O=C(C(=O)N1CCN(C(=O)c2ccccc2)CC1)c1c[nH]c2c(-c3nccs3)nccc12 [Example 21, 1-benzoyl-4-[(7-(thiazol-2-yl)-6-azaindol-3-yl)-oxoacetyl]piperazine]",< 1000 nM,–
C[C@@H]1CN(C(=O)c2ccccc2)CCN1C(=O)C(=O)c1c[nH]c2c(-c3ncco3)ccnc12 [Example 126],–,EC50 [3]: < 1000 nM
COc1cnc(-c2cnccn2)c2[nH]cc(C(=O)C(=O)N3CCN(C(=O)OC(C)(C)C)CC3)c12 [Precursor 5t],< 1000 nM,–
O=C(NCCN1CCOCC1)c1cc(-c2ncc(F)c3c(C(=O)C(=O)N4CCN(C(=O)c5ccccc5)CC4)c[nH]c23)n[nH]1 [Example 213],< 1000 nM,–
COc1cnc(-c2cnc(NC(=O)c3ccncc3)s2)c2[nH]cc(C(=O)C(=O)N3CCN(C(=O)c4ccccc4)CC3)c12 [Example 169],< 1000 nM,–
"O=C(C(=O)N1CCN(C(=O)c2ccccc2)CC1)c1c[nH]c2c(-c3ccco3)nccc12 [Example 7, 1-benzoyl-4-[(7-(furan-2-yl)-6-azaindol-3-yl)-oxoacetyl] piperazine]",< 1000 nM,–
"COc1cnc(-c2cscn2)c2[nH]cc(C(=O)C(=O)N3CCN(C(=O)c4ccccn4)CC3)c12 [Example 173, 1-picolinoyl-4-[(4-methoxy-7-(thiazol-4-yl)-6-azaindol-3-yl)-oxoacetyl]piperazine]",< 1000 nM,–
"CCOC(=O)c1cc(-c2ccnc3c(C(=O)C(=O)N4CCN(C(=O)c5ccccc5)CC4)c[nH]c23)n[nH]1 [Example 202, 5-{3-[2-(4-Benzoyl-piperazin-1-yl)-2-oxo-acetyl]-1H-pyrrolo[3,2-b]pyridin-7-yl}-2H-pyrazole-3-carboxylic acid ethyl ester]",–,EC50 [3]: < 1000 nM
"COc1cnc(-c2cnccn2)c2[nH]cc(C(=O)C(=O)N3CCN(C(=O)c4ccccc4)CC3)c12 [Example 32, 1-benzoyl-4-[(4-methoxy-7-(pyrazin-2-yl)-6-azaindol-3-yl)-oxoacetyl]piperazine]",< 1000 nM,–
"COc1ccc(-c2ccnc3c(C(=O)C(=O)N4CCN(C(=O)c5ccccc5)C[C@@H]4C)c[nH]c23)cc1 [Example 66, 1-benzoyl-3-(S)-methyl-4-[(7-(4-methoxy)-4-azaindol-3-yl)-oxoacetyl]piperazine]",–,EC50 [3]: < 1000 nM
"COc1cnc(-c2cccnn2)c2[nH]cc(C(=O)C(=O)N3CCN(C(=O)c4ccccc4)CC3)c12 [Example 120, 1-benzoyl-4-[(4-methoxy-7-(pyridazin-3-yl)-6-azaindol-3-yl)-oxoacetyl]piperazine]",< 1000 nM,–
"COc1cnc(-c2cnc(C(=O)NC(C)(C)C)cn2)c2[nH]cc(C(=O)C(=O)N3CCN(C(=O)c4ccccc4)CC3)c12 [Example 15, 1-benzoyl-4-[(4-methoxy-7-(2-(1,1-dimethylethylaminocarbonyl)-pyrazin-5-yl)-6-azaindol-3-yl)-oxoacetyl]piperazine]",< 1000 nM,–
"COc1cnc(-c2nccn2C)c2[nH]cc(C(=O)C(=O)N3CCN(C(=O)c4ccccc4)CC3)c12 [Example 27, 1-benzoyl-4-[(4-methoxy-7-(1-methyl-imidazol-2-yl)-6-azaindol-3-yl)-oxoacetyl]piperazine]",< 1000 nM,–
CCOC(=O)c1cc(C)nn1-c1ncc(F)c2c(C(=O)C(=O)N3CCN(C(=O)c4ccccc4)CC3)c[nH]c12 [Example 311],< 1000 nM,–
